Source: ChEMBL document CHEMBL1201862, “PubChem BioAssay data set” (2004)
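How tested: cells in 96-well plates exposed to compound for 48 hours at five concentrations. GI50 = concentration required for 50% inhibition of growth.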 Active and inactive are the calls of the source. No stated cut-off is given here; in the data, active = GI50 up to about 1.1 µM and inactive = higher.

Experiments:
Test in all cases: NCI-60 cell line screen, 48 h
[1] = test system: A498
[2] = test system: A549
[3] = test system: COLO 205
[4] = test system: DU-145
[5] = test system: HCT-15
[6] = test system: HOP-92
[7] = test system: KM12
[8] = test system: MCF7
[9] = test system: OVCAR-3
[10] = test system: OVCAR-4
[11] = test system: OVCAR-8
[12] = test system: PC-3
[13] = test system: RPMI-8226
[14] = test system: SK-MEL-28
[15] = test system: SNB-75
[16] = test system: SW-620
[17] = test system: UACC-257
[18] = test system: UO-31
[19] = test system: SK-MEL-2
[20] = test system: SK-OV-3

Row | Structure (SMILES) | GI50 [1] | GI50 [2] | GI50 [3] | GI50 [4] | GI50 [5] [µM] | GI50 [6] | GI50 [7] | GI50 [8] | GI50 [9] | GI50 [10] | GI50 [11] | GI50 [12] | GI50 [13] | GI50 [14] | GI50 [15] | GI50 [16] | GI50 [17] | GI50 [18] | GI50 [19] | GI50 [20]
1 | O=C(Nc1nc(C23CC4CC(CC(C4)C2)C3)cs1)c1cc2cc(Cl)ccc2oc1=O | > 100 µM (inactive) | > 100 µM (inactive) | > 100 µM (inactive) | > 100 µM (inactive) | > 100 | > 100 µM (inactive) | > 100 µM (inactive) | > 100 µM (inactive) | > 100 µM (inactive) | > 100 µM (inactive) | > 100 µM (inactive) | > 100 µM (inactive) | > 100 µM (inactive) | > 100 µM (inactive) | > 100 µM (inactive) | > 100 µM (inactive) | > 100 µM (inactive) | > 100 µM (inactive) |  | 
2 | O=C(NNC(=O)c1ccccc1Cl)c1ccccc1O | > 100 µM (inactive) | 56.2 µM (inactive) | 35.2 µM (inactive) | > 100 µM (inactive) | 21.7 |  | 20.1 µM (inactive) | 41.4 µM (inactive) | 25.2 µM (inactive) | > 100 µM (inactive) | 19.8 µM (inactive) | 40.4 µM (inactive) | > 100 µM (inactive) | > 100 µM (inactive) | 20.5 µM (inactive) | 71.6 µM (inactive) | > 100 µM (inactive) | 27.7 µM (inactive) | 53.7 µM (inactive) | 18.2 µM (inactive)
3 | N#Cc1c(N)c2c(c(-c3ccccc3)c1-c1ccccc1)C(=O)N(NC(=O)c1ccccc1)C2=O | 41.9 µM (inactive) | > 100 µM (inactive) | > 100 µM (inactive) | > 100 µM (inactive) | > 100 | 60.5 µM (inactive) | > 100 µM (inactive) | 61.2 µM (inactive) | 31 µM (inactive) | > 100 µM (inactive) | > 100 µM (inactive) | 65.2 µM (inactive) | 31.2 µM (inactive) | > 100 µM (inactive) | > 100 µM (inactive) | > 100 µM (inactive) | > 100 µM (inactive) | 41.9 µM (inactive) | > 100 µM (inactive) | 
4 | O=C1c2c(Br)sc(Br)c2C(NC(=O)C(F)(F)F)C1O (stereo not drawn) | > 100 µM (inactive) | 25.3 µM (inactive) | 16.8 µM (inactive) | 20.5 µM (inactive) | 16.7 | 18.8 µM (inactive) | 30.1 µM (inactive) | 22.8 µM (inactive) | 19.3 µM (inactive) | 19.9 µM (inactive) | 20.3 µM (inactive) | 26.1 µM (inactive) |  | 21.8 µM (inactive) | 27.9 µM (inactive) | 17.8 µM (inactive) | 19.3 µM (inactive) | 22.4 µM (inactive) | 16.7 µM (inactive) | 19.3 µM (inactive)
5 | COC(=O)/C=C/c1ccc2c(c1)CC1(C2)Cc2cc3c(cc2C1=O)CCC3 (stereo not drawn) | > 100 µM (inactive) | 40.3 µM (inactive) | > 100 µM (inactive) | > 100 µM (inactive) | > 100 | 35.3 µM (inactive) | 56.8 µM (inactive) | > 100 µM (inactive) | 4.63 µM (inactive) | 43.2 µM (inactive) | 25.1 µM (inactive) | 88.9 µM (inactive) | 15 µM (inactive) | > 100 µM (inactive) | 24.9 µM (inactive) | > 100 µM (inactive) | > 100 µM (inactive) | 50.8 µM (inactive) | > 100 µM (inactive) | 
6 | C=Cn1c([N+](=O)[O-])cnc1/C=C/c1ccc(C(=O)OCCN2CCOCC2)cc1 | 75.5 µM (inactive) | > 100 µM (inactive) | > 100 µM (inactive) | > 100 µM (inactive) | > 100 | > 100 µM (inactive) | > 100 µM (inactive) | > 100 µM (inactive) | > 100 µM (inactive) | > 100 µM (inactive) | > 100 µM (inactive) | > 100 µM (inactive) | 12 µM (inactive) | > 100 µM (inactive) | > 100 µM (inactive) | > 100 µM (inactive) | > 100 µM (inactive) |  | > 100 µM (inactive) | > 100 µM (inactive)
7 | OB(O)c1ccccc1C#Cc1ccccc1B(O)O | 3.04 µM (inactive) | 18.5 µM (inactive) | 16.2 µM (inactive) | 15.9 µM (inactive) | 20.9 | 23.3 µM (inactive) | 13.9 µM (inactive) | 3.13 µM (inactive) | 17.1 µM (inactive) |  | 22.6 µM (inactive) | 22.1 µM (inactive) | 20.6 µM (inactive) | 35.6 µM (inactive) | 19 µM (inactive) | 20.1 µM (inactive) | 0.55 µM (active) | 20.3 µM (inactive) | 11.5 µM (inactive) | 24 µM (inactive)
8 | CC(C)(C)OC(=O)NC(CSCc1ccc(C(=O)c2ccccc2)cc1)C(=O)N1CCN(CCCCN2c3ccccc3Sc3cc(N=[N+]=[N-])ccc32)CC1 (stereo not drawn) | > 100 µM (inactive) | > 100 µM (inactive) | > 100 µM (inactive) | > 100 µM (inactive) | > 100 | > 100 µM (inactive) | > 100 µM (inactive) | > 100 µM (inactive) | > 100 µM (inactive) | > 100 µM (inactive) | > 100 µM (inactive) | > 100 µM (inactive) |  | > 100 µM (inactive) | 58.7 µM (inactive) | > 100 µM (inactive) | > 100 µM (inactive) | > 100 µM (inactive) | > 100 µM (inactive) | > 100 µM (inactive)
9 | O=C1/C(=C/c2ccccc2)N=C(c2ccccc2)N1n1c(-c2ccccc2)nc2ccccc2c1=O | 92 µM (inactive) | 47.6 µM (inactive) | > 100 µM (inactive) | 83 µM (inactive) | 72.4 | 97.5 µM (inactive) | 61.7 µM (inactive) | 34 µM (inactive) | 57.9 µM (inactive) | 60 µM (inactive) | > 100 µM (inactive) | 57.7 µM (inactive) | 28.8 µM (inactive) | 74.3 µM (inactive) | > 100 µM (inactive) | > 100 µM (inactive) | > 100 µM (inactive) | 83.2 µM (inactive) |  | > 100 µM (inactive)
10 | CCOC(=O)c1nc2ccccc2nc1NCc1ccc(OC)c(OC)c1 | > 100 µM (inactive) | > 100 µM (inactive) | > 100 µM (inactive) | > 100 µM (inactive) | > 100 | > 100 µM (inactive) | > 100 µM (inactive) | > 100 µM (inactive) | > 100 µM (inactive) | > 100 µM (inactive) | > 100 µM (inactive) | > 100 µM (inactive) | > 100 µM (inactive) | > 100 µM (inactive) | > 100 µM (inactive) | > 100 µM (inactive) | > 100 µM (inactive) | > 100 µM (inactive) |  | > 100 µM (inactive)
11 | COc1cc(CNC(=O)[C@H](Cc2ccc(O)cn2)NC(C)=O)cc(OC)c1 | > 100 µM (inactive) | > 100 µM (inactive) | > 100 µM (inactive) | > 100 µM (inactive) | > 100 | 13.2 µM (inactive) | > 100 µM (inactive) | > 100 µM (inactive) | 50.6 µM (inactive) | > 100 µM (inactive) |  | 99.3 µM (inactive) | 29.5 µM (inactive) | > 100 µM (inactive) |  | > 100 µM (inactive) | 65.6 µM (inactive) | > 100 µM (inactive) | > 100 µM (inactive) | > 100 µM (inactive)
12 | CCCCCCCCCCCCCCCCOP(=O)(O)OP(=O)(O)OCC1OC(n2cnc3c(N)ncnc32)C(O)C1O (stereo not drawn) | > 100 µM (inactive) | > 100 µM (inactive) | > 100 µM (inactive) | 69.3 µM (inactive) | > 100 | 19.1 µM (inactive) | > 100 µM (inactive) | 56 µM (inactive) | > 100 µM (inactive) | > 100 µM (inactive) | 39.8 µM (inactive) | 38.2 µM (inactive) |  | 24.5 µM (inactive) | 24.4 µM (inactive) | > 100 µM (inactive) | > 100 µM (inactive) | 60.5 µM (inactive) | 49.8 µM (inactive) | 33 µM (inactive)
13 | Cc1c2cccc-2c(N(C)C)cc2c1[nH]c1ccccc12 | 21 µM (inactive) | 3.85 µM (inactive) | 1.65 µM (inactive) | 14.6 µM (inactive) | 3.12 | 0.561 µM (active) | 2.74 µM (inactive) | 5.31 µM (inactive) | 4.32 µM (inactive) |  | 3.21 µM (inactive) | 1.42 µM (inactive) | 2.07 µM (inactive) | 2.02 µM (inactive) |  | 4.17 µM (inactive) | 13 µM (inactive) | 2.53 µM (inactive) |  | 2.67 µM (inactive)
14 | CC(=O)C(CN1C(=O)c2ccccc2C1=O)C(C)=O | > 100 µM (inactive) | > 100 µM (inactive) | > 100 µM (inactive) | > 100 µM (inactive) | > 100 | > 100 µM (inactive) |  | > 100 µM (inactive) | > 100 µM (inactive) | > 100 µM (inactive) | > 100 µM (inactive) | > 100 µM (inactive) |  | > 100 µM (inactive) | > 100 µM (inactive) | > 100 µM (inactive) | > 100 µM (inactive) | > 100 µM (inactive) | > 100 µM (inactive) | > 100 µM (inactive)
15 | COc1ccc(-c2nnc3nc4ccccc4n3c2O)cc1 | > 100 µM (inactive) | > 100 µM (inactive) | > 100 µM (inactive) | > 100 µM (inactive) | > 100 | 54 µM (inactive) | > 100 µM (inactive) | > 100 µM (inactive) |  | > 100 µM (inactive) | > 100 µM (inactive) | > 100 µM (inactive) |  | > 100 µM (inactive) | 41.9 µM (inactive) | > 100 µM (inactive) | > 100 µM (inactive) | > 100 µM (inactive) | > 100 µM (inactive) | 
